Measurements as given in patent US20250176599A1, “FLAVOR COMPOSITION AND FOOD AND BEVERAGE” (TAKASAGO INTERNATIONAL CORPORATION, priority 2021, published 2025).

How the values were obtained:
[1] = Sensory evaluation of aqueous solution I containing (E)-2-nonenal 1 ppb: off-flavor intensity and masking component intensity; conditions: (E)-2-nonenal 1 ppb, average score 0-4
Summary of the method: (§1)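 Eight trained panelists tasted water solutions of the off-flavor compounds spiked with nootkatone. Masking-agent taste was scored absolutely from 0 (not sensed) to 4 (strong). Off-flavor was scored relatively, anchored at 4 for the solution without masker and 0 for ion-exchanged water.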

[2] = Sensory evaluation of aqueous solution II containing (E)-2-octenal 10 ppb: off-flavor intensity and masking component intensity; conditions: (E)-2-octenal 10 ppb, average score 0-4
Summary of the method: as §1

[3] = Sensory evaluation of aqueous solution III containing 1-octen-3-one 1 ppb: off-flavor intensity and masking component intensity; conditions: 1-octen-3-one 1 ppb, average score 0-4
Summary of the method: as §1

[4] = Sensory evaluation of aqueous solution IV containing 1,5-octadien-3-one 100 ppt: off-flavor intensity and masking component intensity; conditions: aqueous solution IV, 1,5-octadien-3-one 100 ppt, average score 0-4
Summary of the method: as §1

[5] = Sensory evaluation of aqueous solution V containing 1-octen-3-ol 10 ppb: off-flavor intensity and masking component intensity; conditions: 1-octen-3-ol 10 ppb, average score 0-4
Summary of the method: as §1

[6] = Sensory evaluation of aqueous solution VI containing 1,5-octadien-3-ol 10 ppb: off-flavor intensity and masking component intensity; conditions: aqueous solution VI, 1,5-octadien-3-ol 10 ppb, average score 0-4
Summary of the method: as §1

[7] = Sensory evaluation of degradation component-added soymilk I ((E)-2-nonenal 5 ppb); conditions: average panel score
Method: (§2) To commercially available soymilk (“Delicious Unadjusted Soymilk” manufactured by Kikkoman Corporation), each degradation component was added to prepare degradation component-added soymilks at the concentrations listed in Table 23. To these degradation component-added soymilks, 1,4-dioxacycloheptadecan-5,17-dione was added at the concentrations listed in Table 23 to confirm the intensity of the off-flavor (masking effect) and the intensity of the masking components (impact on the flavor of the soymilk itself) for each sample.
(§3) Eight experienced panelists were selected to conduct a sensory evaluation similar to that of Example 1. […]

[8] = Sensory evaluation of degradation component-added soymilk II (1-octen-3-ol 500 ppb); conditions: average panel score
Method: as §2, §3

[9] = Overall conclusion of the sensory evaluation across aqueous solutions I to VI
Summary of the method: as §1

[10] = Overall conclusion of the sensory evaluation across soymilks I and II
Method: as §2
Eight experienced panelists were selected to conduct a sensory evaluation similar to that of Example 1.
The same method as in Example 20 was used to confirm the intensity of the off-flavor (masking effect) derived from unsaturated fatty acids by α-methyl ionone and the intensity of the masking components (impact on the flavor of the soymilk itself).
The same method as in Example 20 was used to confirm the intensity of the off-flavor (masking effect) derived from unsaturated fatty acids by menthyl 3-hydroxybutyrate and the intensity of the masking components (impact on the flavor of the soymilk itself).

CCC(=O)/C=C/C1C(C)=CCCC1(C)C (stereo not drawn) [α-Methyl Ionone, α-methyl ionone]
Off-Flavor Intensity ([1]; 0.01 ppt added): 3.9 points
Off-Flavor Intensity ([1]; 0.1 ppt added): 3.3 points
Off-Flavor Intensity ([1]; 1 ppb added): 1.5 points
Off-Flavor Intensity ([1]; 1 ppm added): 0.3 points
Off-Flavor Intensity ([1]; 1 ppt added): 2.9 points
Off-Flavor Intensity ([1]; 10 ppb added): 1.0 points
Off-Flavor Intensity ([1]; 10 ppt added): 2.4 points
Off-Flavor Intensity ([1]; 100 ppb added): 0.3 points
Off-Flavor Intensity ([1]; 100 ppt added): 1.8 points
Off-Flavor Intensity ([2]; 0.01 ppt added): 3.1 points
Off-Flavor Intensity ([2]; 0.1 ppt added): 2.8 points
Off-Flavor Intensity ([2]; 1 ppb added): 1.0 points
Off-Flavor Intensity ([2]; 1 ppm added): 0.3 points
Off-Flavor Intensity ([2]; 1 ppt added): 2.1 points
Off-Flavor Intensity ([2]; 10 ppb added): 0.8 points
Off-Flavor Intensity ([2]; 10 ppt added): 1.5 points
Off-Flavor Intensity ([2]; 100 ppb added): 0.4 points
Off-Flavor Intensity ([2]; 100 ppt added): 1.1 points
Off-Flavor Intensity ([3]; 0.01 ppt added): 3.4 points
Off-Flavor Intensity ([3]; 0.1 ppt added): 3.1 points
Off-Flavor Intensity ([3]; 1 ppb added): 1.4 points
Off-Flavor Intensity ([3]; 1 ppm added): 0.3 points
Off-Flavor Intensity ([3]; 1 ppt added): 2.6 points
Off-Flavor Intensity ([3]; 10 ppb added): 1.3 points
Off-Flavor Intensity ([3]; 10 ppt added): 2.3 points
Off-Flavor Intensity ([3]; 100 ppb added): 0.3 points
Off-Flavor Intensity ([3]; 100 ppt added): 1.9 points
Off-Flavor Intensity ([4]; 0.01 ppt added): 3.4 points
Off-Flavor Intensity ([4]; 0.1 ppt added): 3.3 points
Off-Flavor Intensity ([4]; 1 ppb added): 1.5 points
Off-Flavor Intensity ([4]; 1 ppm added): 0.4 points
Off-Flavor Intensity ([4]; 1 ppt added): 2.9 points
Off-Flavor Intensity ([4]; 10 ppb added): 1.4 points
Off-Flavor Intensity ([4]; 10 ppt added): 2.6 points
Off-Flavor Intensity ([4]; 100 ppb added): 0.8 points
Off-Flavor Intensity ([4]; 100 ppt added): 1.9 points
Off-Flavor Intensity ([5]; 0.01 ppt added): 3.6 points
Off-Flavor Intensity ([5]; 0.1 ppt added): 3.3 points
Off-Flavor Intensity ([5]; 1 ppb added): 1.4 points
Off-Flavor Intensity ([5]; 1 ppm added): 0.1 points
Off-Flavor Intensity ([5]; 1 ppt added): 2.8 points
Off-Flavor Intensity ([5]; 10 ppb added): 0.8 points
Off-Flavor Intensity ([5]; 10 ppt added): 2.4 points
Off-Flavor Intensity ([5]; 100 ppb added): 0.5 points
Off-Flavor Intensity ([5]; 100 ppt added): 1.8 points
Off-Flavor Intensity ([6]; 0.01 ppt added): 3.5 points
Off-Flavor Intensity ([6]; 0.1 ppt added): 3.3 points
Off-Flavor Intensity ([6]; 1 ppb added): 1.4 points
Off-Flavor Intensity ([6]; 1 ppm added): 0.5 points
Off-Flavor Intensity ([6]; 1 ppt added): 2.8 points
Off-Flavor Intensity ([6]; 10 ppb added): 1.4 points
Off-Flavor Intensity ([6]; 10 ppt added): 2.4 points
Off-Flavor Intensity ([6]; 100 ppb added): 0.6 points
Off-Flavor Intensity ([6]; 100 ppt added): 2.0 points
Masking Component Intensity ([7]; 1 ppb added): 0.8
Off-Flavor Intensity ([7]; 1 ppb added): 2.6
Masking Component Intensity ([7]; 1 ppm added): 3.9
Off-Flavor Intensity ([7]; 1 ppm added): 0.5
Masking Component Intensity ([7]; 10 ppb added): 1.9
Off-Flavor Intensity ([7]; 10 ppb added): 1.9
Masking Component Intensity ([7]; 100 ppb added): 3.1
Off-Flavor Intensity ([7]; 100 ppb added): 1.0
Masking Component Intensity ([7]; 100 ppt added): 0.1
Off-Flavor Intensity ([7]; 100 ppt added): 3.0
Masking Component Intensity ([8]; 1 ppb added): 0.8
Off-Flavor Intensity ([8]; 1 ppb added): 2.1
Masking Component Intensity ([8]; 1 ppm added): 3.9
Off-Flavor Intensity ([8]; 1 ppm added): 0.4
Masking Component Intensity ([8]; 10 ppb added): 1.4
Off-Flavor Intensity ([8]; 10 ppb added): 1.3
Masking Component Intensity ([8]; 100 ppb added): 2.8
Off-Flavor Intensity ([8]; 100 ppb added): 0.9
Masking Component Intensity ([8]; 100 ppt added): 0.4
Off-Flavor Intensity ([8]; 100 ppt added): 2.5
concentration that masks the off-flavor and does not affect the flavor of the food and/or beverage itself, lower limit [9]: ≥ 0.1 ppt
concentration that masks the off-flavor and does not affect the flavor of the food and/or beverage itself, upper limit [9]: ≤ 100 ppb
concentration that masks the off-flavor and does not affect the flavor of the soymilk itself, lower limit [10]: ≥ 100 ppt
concentration that masks the off-flavor and does not affect the flavor of the soymilk itself, upper limit [10]: ≤ 100 ppb
